Experimental findings from US11214803B2, “Modulators of YAP1 expression” (Ionis Pharmaceuticals, Inc., priority 2019, dated 2022) are described below.

In this data set the test system is Yap1 mRNA. Briefly: Antisense inhibition of human Yap1 in A-431 cells by cEt gapmers, single dose (Example 3, RTS36584). In kind it is cell-based. In short, it runs like this: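 Human epidermoid A-431 cells take up gapmer (2,000 nM, free uptake, ~48 h); Yap1 transcript is then assayed by qRT-PCR with RiboGreen normalization and reported relative to untreated cells. Gapmers carry cEt-modified wings, phosphorothioate linkages and 5-methylcytosine throughout.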

Setting [1] is: Table 9, A-431 cells, 5,000 cells per well, free uptake, 2,000 nM, approximately 48 hours, RTS36584, normalized to RIBOGREEN, Yap1 mRNA relative to untreated control cells.
Where [2] appears, read: Table 27, Yap1 mRNA by 3-10-3 cEt gapmers targeting SEQ ID NO.: 1, and 2, percent of untreated control.
Setting [3] is: Table 34, Yap1 mRNA as percent of untreated control, 3-10-3 cEt gapmers targeting SEQ ID NO: 1 and 2, single dose.
The mark [4] stands for this setting: Table 12, A-431 cells, 5,000 cells per well, free uptake, 2,000 nM modified oligonucleotide, approx. 48 hours, RTS36584, normalized to RIBOGREEN, Yap1 mRNA relative to untreated control cells.
The mark [5] stands for this setting: Table 29, Yap1 mRNA as percent of untreated control, 3-10-3 cEt gapmers targeting SEQ ID NO.: 1, and 2.
Setting [6] is: Table 11, A-431 cells, 5,000 cells per well, free uptake, 2,000 nM oligonucleotide, approx. 48 hours, primer probe set RTS36584, Yap1 mRNA normalized to RIBOGREEN, percent of untreated control.
Where [7] appears, read: Table 35, Yap1 mRNA as percent of untreated control, 3-10-3 cEt gapmers targeting SEQ ID NO: 1 and 2, single dose.
Where [8] appears, read: Table 13, A-431 cells, 5,000 cells per well, free uptake, 2,000 nM modified oligonucleotide, approx. 48 hours, RTS36584, normalized to RIBOGREEN, Yap1 mRNA relative to untreated control cells.
Where [9] appears, read: Table 26, Yap1 mRNA by 3-10-3 cEt gapmers targeting SEQ ID NO.: 1, and 2, percent of untreated control.
The mark [10] stands for this setting: Table 8, A-431 cells, 5,000 cells per well, free uptake, 2,000 nM, approximately 48 hours, RTS36584, normalized to RIBOGREEN, Yap1 mRNA relative to untreated control cells.

Strand notation (5' to 3'): a small letter for the sugar, then the base; units joined by * are phosphorothioate-linked, units joined directly phosphodiester-linked; [ ] holds rarer units or linkages, { } end groups; capitals alone tell only the bases. k = constrained ethyl (cEt); [5mC] = 5-methylcytosine; d = 2'-deoxy (DNA)

Consider “958486 (kT*kT*kA*dG*dA*dG*d[5mC]*d[5mC]*dA*dA*d[5mC]*dT*dG*kT*kG*kA; antisense) [Compound 958486]”, for which, under setting [1], the “YAP1 (% UTC)” value was 9 % UTC. “1075885 (antisense k[5mC]*kA*kT*dT*dA*dG*dT*dA*dA*dT*dG*dA*d[5mC]*kT*kA*kA) [compound 1075885]”: the “YAP1 (% UTC)” value under setting [2] came out at 112 % UTC. “1074196 (antisense kG*k[5mC]*k[5mC]*d[5mC]*dG*dG*dG*dT*d[5mC]*d[5mC]*dG*dG*dA*k[5mC]*kG*kG) [compound 1074196]”: the “YAP1 (% UTC)” value under setting [3] was 99 % UTC. Regarding “958794 (antisense kT*kT*k[5mC]*d[5mC]*dG*d[5mC]*dA*dT*dT*dG*d[5mC]*d[5mC]*dT*kA*kA*kG) [Compound 958794]”, the “YAP1 (% UTC)” value under setting [4] was found to be 14 % UTC.

With “1075215 (kA*kA*kA*d[5mC]*dA*dA*dT*dA*dA*dA*dG*dG*dG*kT*k[5mC]*k[5mC]; antisense) [compound 1075215]”, the “YAP1 (% UTC)” value under setting [5] is 44 % UTC.

In the case of “958748 (antisense kA*k[5mC]*kA*dT*dG*dT*dG*dA*d[5mC]*dA*dT*dT*d[5mC]*k[5mC]*kG*kG) [Compound 958748]”, the “YAP1 (% UTC)” value under setting [6] turned out to be 83 % UTC. With “958543 (kA*k[5mC]*k[5mC]*dT*dT*dA*dT*dA*dG*dT*dA*dT*dT*k[5mC]*kT*kA; antisense) [Compound 958543]”, the “YAP1 (% UTC)” value under setting [6] amounted to 4 % UTC. For the substance “1075949 (antisense kT*kA*kG*dG*dA*dA*d[5mC]*dA*d[5mC]*d[5mC]*dA*dA*dG*kG*kT*kT) [compound 1075949]”, under setting [2], the “YAP1 (% UTC)” value amounted to 48 % UTC. With “1075925 (antisense kA*kA*k[5mC]*d[5mC]*dT*dA*dT*dA*dT*dT*dA*dT*dT*kT*kG*k[5mC]) [compound 1075925]”, the “YAP1 (% UTC)” value under setting [7] stood at 28 % UTC. Consider “958700 (antisense k[5mC]*kT*kA*dA*dT*dA*dT*dA*dG*dA*d[5mC]*dT*dA*k[5mC]*kT*k[5mC]) [Compound 958700]”, for which the “YAP1 (% UTC)” value under setting [8] is listed as 55 % UTC.

Consider “1075212 (k[5mC]*kA*kA*dT*dA*dA*dA*dG*dG*dG*dT*d[5mC]*d[5mC]*kT*kA*kA; antisense) [compound 1075212]”, for which the “YAP1 (% UTC)” value under setting [9] was found to be 76 % UTC. In the case of “958372 (antisense kG*kG*kT*dG*d[5mC]*dT*dA*dG*d[5mC]*dT*dG*dG*dT*kG*k[5mC]*k[5mC]) [Compound 958372]”, the “YAP1 (% UTC)” value under setting [10] came to 49 % UTC.

In the case of “1076181 (kT*kA*kT*dA*dA*dT*dT*dA*dG*d[5mC]*d[5mC]*dA*dA*k[5mC]*k[5mC]*kA; antisense) [compound 1076181]”, the “YAP1 (% UTC)” value under setting [7] turned out to be 26 % UTC. Consider “958546 (k[5mC]*kA*kT*dA*d[5mC]*dT*d[5mC]*dT*dA*dG*dT*dT*dA*k[5mC]*kA*kT; antisense) [Compound 958546]”, for which, under setting [1], the “YAP1 (% UTC)” value came to 6 % UTC. In the case of “1075663 (antisense k[5mC]*kT*kA*dA*dA*dT*dA*dG*dG*dT*dG*dG*dT*kT*kA*kT) [compound 1075663]”, the “YAP1 (% UTC)” value under setting [5] was 80 % UTC. For “958695 (antisense kT*k[5mC]*kA*dA*dT*dT*d[5mC]*dT*d[5mC]*d[5mC]*dA*d[5mC]*d[5mC]*kA*kG*kA) [Compound 958695]”, the “YAP1 (% UTC)” value under setting [8] turned out to be 45 % UTC. On to “958506 (kG*k[5mC]*kA*dG*dA*dT*dA*dA*dT*d[5mC]*dG*dA*dG*kA*kT*kT; antisense) [Compound 958506]”, for which, under setting [1], the “YAP1 (% UTC)” value came out at 6 % UTC. Consider “1074157 (kA*kG*k[5mC]*dG*dA*dG*dG*dG*d[5mC]*dT*dA*d[5mC]*dG*k[5mC]*k[5mC]*k[5mC]; antisense) [compound 1074157]”, for which, under setting [2], the “YAP1 (% UTC)” value was 103 % UTC. In the case of “958609 (antisense kT*kG*kA*d[5mC]*dA*dA*dG*dT*dG*dT*dG*d[5mC]*dA*kT*kT*kA) [Compound 958609]”, under setting [4], the “YAP1 (% UTC)” value worked out at 16 % UTC.

For the substance “958553 (k[5mC]*k[5mC]*kA*dT*dT*dA*dT*dT*dA*d[5mC]*dT*d[5mC]*d[5mC]*kT*kG*kT; antisense) [Compound 958553]”, under setting [6], the “YAP1 (% UTC)” value turned out to be 1 % UTC. For “958504 (kA*kT*k[5mC]*dG*dA*dG*dA*dT*dT*dT*dA*dA*dA*kT*kA*kA; antisense) [Compound 958504]”, the “YAP1 (% UTC)” value under setting [4] was determined as 63 % UTC. The same measure, in the same setting: with “958664 (kA*k[5mC]*kG*dA*dA*d[5mC]*dT*dA*dA*dG*dG*dT*dG*kT*kA*k[5mC]; antisense) [Compound 958664]” the figure was 40 % UTC. Consider “1076079 (kA*kA*kG*d[5mC]*dA*dA*dT*dA*dT*dA*dT*dG*dG*k[5mC]*k[5mC]*kT; antisense) [compound 1076079]”, for which the “YAP1 (% UTC)” value under setting [5] was 37 % UTC. In the case of “958353 (antisense kT*k[5mC]*kG*dG*dT*d[5mC]*dT*d[5mC]*d[5mC]*dG*dA*dG*dT*k[5mC]*k[5mC]*k[5mC]) [Compound 958353]”, the “YAP1 (% UTC)” value under setting [10] came to 43 % UTC. In the case of “958760 (antisense kA*kG*kT*dA*dA*dT*dA*dG*dA*dT*d[5mC]*dT*dA*k[5mC]*kA*kA) [Compound 958760]”, the “YAP1 (% UTC)” value under setting [8] is listed as 76 % UTC.

Consider “958615 (antisense kT*kG*kG*dT*d[5mC]*dT*dT*dG*dT*dT*d[5mC]*dT*dT*kA*kT*kG) [Compound 958615]”, for which the “YAP1 (% UTC)” value under setting [8] is on record as 3 % UTC. “1074799 (kT*kG*k[5mC]*dT*dT*dT*dG*dG*dA*dA*dG*dA*dT*k[5mC]*kT*kG) [compound 1074799]”: the “YAP1 (% UTC)” value under setting [5] was found to be 8 % UTC. Take “1075381 (antisense kT*kA*kT*dT*dA*d[5mC]*d[5mC]*d[5mC]*dT*dA*d[5mC]*dT*d[5mC]*kA*kT*kA) [compound 1075381]”: the “YAP1 (% UTC)” value under setting [7] turned out to be 89 % UTC.

In the case of “1076468 (k[5mC]*kA*kT*dT*dA*d[5mC]*dT*dA*d[5mC]*dT*dA*dA*dG*kA*kG*kT; antisense) [compound 1076468]”, the “YAP1 (% UTC)” value under setting [3] is on record as 91 % UTC. On to “958800 (antisense kT*k[5mC]*kG*dA*dT*dA*dA*dT*dA*dT*dA*dT*dG*kG*k[5mC]*kA) [Compound 958800]”, for which, under setting [8], the “YAP1 (% UTC)” value stood at 22 % UTC. Regarding “1076142 (kA*kT*kA*d[5mC]*dG*dA*dA*dA*dA*dA*dA*dG*d[5mC]*k[5mC]*kA*kA; antisense) [compound 1076142]”, under “Table 28, Yap1 mRNA as percent of untreated control, 3-10-3 cEt gapmers targeting SEQ ID NO.: 1, and 2”, the “YAP1 (% UTC)” value is 38 % UTC. For the substance “1076372 (antisense k[5mC]*kA*kA*dT*dA*dA*dG*dA*dA*d[5mC]*dG*dA*dA*k[5mC]*k[5mC]*kT) [compound 1076372]”, under setting [3], the “YAP1 (% UTC)” value was 76 % UTC. On to “1076268 (kG*kT*kA*d[5mC]*dA*dA*dT*dA*dA*dT*dG*d[5mC]*dT*kT*k[5mC]*k[5mC]; antisense) [compound 1076268]”, for which, under setting [9], the “YAP1 (% UTC)” value is recorded as 10 % UTC.

On to “1074612 (DNA kA*kT*kA*dG*d[5mC]*dT*dT*dA*dT*dA*dT*dT*dG*kA*kA*kG; further chemistry not given here) [compound 1074612]”, for which the “YAP1 (% UTC)” value under setting [3] is 12 % UTC.

As for “1074991 (antisense kA*kA*kT*dT*dA*dT*dT*dT*dG*dA*d[5mC]*dT*d[5mC]*k[5mC]*k[5mC]*k[5mC]) [compound 1074991]”, the “YAP1 (% UTC)” value under setting [5] amounted to 60 % UTC. On to “958740 (antisense k[5mC]*kG*kG*d[5mC]*dA*d[5mC]*d[5mC]*dA*dA*dA*d[5mC]*dA*d[5mC]*k[5mC]*k[5mC]*kA) [Compound 958740]”, for which, under setting [8], the “YAP1 (% UTC)” value was 57 % UTC. For “1074285 (antisense kG*k[5mC]*kA*dA*dA*dA*d[5mC]*dG*dA*dG*dG*dG*dT*k[5mC]*kA*kA) [compound 1074285]”, the “YAP1 (% UTC)” value under setting [2] is 17 % UTC.

With “958357 (antisense k[5mC]*kG*kG*d[5mC]*dT*dT*dG*dA*dA*dG*dA*dA*dG*kG*kA*kG) [Compound 958357]”, the “YAP1 (% UTC)” value under setting [10] worked out at 12 % UTC.

For the substance “1075917 (antisense kA*kG*k[5mC]*dA*dA*dA*dA*dA*dG*dT*dG*dA*dT*kA*kT*kG) [compound 1075917]”, the “YAP1 (% UTC)” value under setting [2] is given as 55 % UTC. Consider “1075316 (antisense kG*kT*kA*dT*dA*dT*dA*dG*dA*dT*dA*d[5mC]*d[5mC]*k[5mC]*kA*k[5mC]) [compound 1075316]”, for which the “YAP1 (% UTC)” value under setting [3] is on record as 25 % UTC. In the case of “1075924 (antisense kA*kT*kT*dT*dA*dA*dT*dA*d[5mC]*dT*d[5mC]*dT*d[5mC]*kT*kG*kG) [compound 1075924]”, the “YAP1 (% UTC)” value under setting [3] turned out to be 21 % UTC. As to “958652 (kG*k[5mC]*kT*dA*d[5mC]*dG*dA*d[5mC]*dG*dG*d[5mC]*dT*dG*kG*k[5mC]*k[5mC]; antisense) [Compound 958652]”, the “YAP1 (% UTC)” value (Table 10, A-431 cells, 5,000 cells per well, free uptake, 2,000 nM oligonucleotide, approx. 48 hours, primer probe set RTS36584, Yap1 mRNA normalized to RIBOGREEN, percent of untreated control) is on record as 136 % UTC. “958739 (antisense kA*kG*k[5mC]*dA*dA*dT*dA*dG*dA*dG*dT*dA*dA*k[5mC]*k[5mC]*kA) [Compound 958739]”: the “YAP1 (% UTC)” value under setting [4] worked out at 4 % UTC.
